Among the data in patent publication US9580390B2, “Indazole compounds as kinase inhibitors and method of treating cancer with same” (University Health Network, priority 2011, dated 2017) are IC50 and GI50 values, retold here.

Assay [1] has as its target T1, human TTK (Homo sapiens, UniProt P33981).
T1 construct: amino terminal GST fusion of full length human TTK; purchased Invitrogen
T1 sequence (P33981 1-857): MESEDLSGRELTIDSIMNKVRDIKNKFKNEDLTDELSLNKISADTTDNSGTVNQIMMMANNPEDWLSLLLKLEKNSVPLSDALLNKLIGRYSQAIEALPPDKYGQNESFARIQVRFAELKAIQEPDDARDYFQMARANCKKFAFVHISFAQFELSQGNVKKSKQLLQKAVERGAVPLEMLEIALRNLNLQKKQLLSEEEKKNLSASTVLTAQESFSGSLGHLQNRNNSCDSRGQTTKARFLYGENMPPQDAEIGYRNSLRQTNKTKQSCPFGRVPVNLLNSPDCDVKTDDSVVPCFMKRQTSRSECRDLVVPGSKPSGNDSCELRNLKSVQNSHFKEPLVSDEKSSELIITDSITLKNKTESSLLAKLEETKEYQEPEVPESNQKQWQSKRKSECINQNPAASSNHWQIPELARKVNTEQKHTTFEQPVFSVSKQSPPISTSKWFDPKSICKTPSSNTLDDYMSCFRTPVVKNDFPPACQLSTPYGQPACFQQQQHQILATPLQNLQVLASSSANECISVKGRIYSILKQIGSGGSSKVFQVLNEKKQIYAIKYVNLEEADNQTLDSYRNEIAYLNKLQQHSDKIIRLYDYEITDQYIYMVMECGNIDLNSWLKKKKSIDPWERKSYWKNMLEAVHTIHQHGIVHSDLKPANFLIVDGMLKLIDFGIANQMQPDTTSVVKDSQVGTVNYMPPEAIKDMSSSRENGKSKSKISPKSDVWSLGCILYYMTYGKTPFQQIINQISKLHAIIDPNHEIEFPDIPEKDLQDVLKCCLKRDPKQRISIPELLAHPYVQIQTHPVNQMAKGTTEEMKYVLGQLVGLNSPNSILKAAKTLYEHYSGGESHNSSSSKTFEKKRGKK
As to the kind of experiment: TTK inhibition assay (indirect ELISA). In kind it is biochemical. Conditions: read-out: TTK IC50 Range.

The test system of assay [2] is Breast cancer cells. As to the kind of experiment: Cancer cell line growth inhibition (SRB assay). The conditions noted are these: Homo sapiens; MDA-MB-468; read-out: Cancer Cell Line GI50 Range MDA-MB-468. The assay is classed as cell-based. A general note: Sulforhodamine B stains cellular protein and so reports cell mass.
Assay [3] relates to colon cancer cells (HCT116). In words: Cancer cell line growth inhibition (SRB assay). In kind it is cell-based. The conditions noted are these: Homo sapiens, HCT-116; read-out: Cancer Cell Line GI50 Range HCT116.
Method: Breast cancer cells (MDA-MB-231), colon cancer cells (HCT116) and ovarian cancer cells (PA-1) were seeded (1000 to 4000 in 80 μl per well depending on the cell growth rate) into 96 well plates 24 hours before compound overlay. Compounds were prepared as 10 mM stock solutions in 100% DMSO which were diluted with DMEM (Dulbecco's Modified Eagle's Medium) cell growth Medium (Invitrogen, Burlington, ON, Canada) containing 10% FBS (Fetal Bovine Serum) to concentrations ranging from 50 nM to 250 μM. Aliquots (20 μl) from each concentration were overlaid to 80 μl of the pre-seeded cells in the 96 well plates to make final concentrations of 10 nM to 50 μM. The cells were cultured for 5 days before the Sulforhodamine B assay (SRB) was performed to determine the compound's cell growth inhibition activity.
Sulforhodamine B (purchased from Sigma, Oakville, ON, Canada) is a water-soluble dye that binds to the basic amino acids of the cellular proteins. Thus, colorimetric measurement of the bound dye provides an estimate of the total protein mass that is related to the cell number. the cells are fixed in situ by gently aspirating off the culture media and adding 50 μl ice cold 10% Trichloroacetic Acid (TCA) per well and incubate at 4° C. for 30-60 min. The plates are washed with H2O five times and allowed to air dry for 5 min. Addition of 50 μl 0.4% (w/v) SRB solution in 1% (v/v) acetic acid to each well and incubation for 30 min at RT completes the staining reaction. Following staining, plates are washed four times with 1% acetic acid to remove unbound dye and then allowed to air dry for 5 min. The stain is solubilized with 100 μl of 10 mM Tris pH 10.5 per well. Absorbance is read at 570 nm.
The percentage (%) of relative growth inhibition was calculated by comparing to DMSO treated only cells (100%). GI50's were determined for compounds with cytotoxic activity. The GI50 was calculated using GraphPad PRISM software (GraphPad Software, Inc., San Diego, Calif., USA).
Assay [4] has as its system ovarian cancer cells (PA-1). As to the kind of experiment: Cancer cell line growth inhibition (SRB assay). In kind it is cell-based. Conditions: Homo sapiens, PA-1; read-out: Cancer Cell Line GI50 Range PA-1.
For assay [5], the system named is TICs (Colon 12). As to the kind of experiment: Colon tumor-initiating cell growth inhibition (Alamar Blue). In kind it is cell-based. The conditions noted are these: 216 h; Colon 12 TICs, 9 days; read-out: Tumor Initiating Cell GI50 Range Colon 12.
The test system of assay [6] is TICs (Ovarian 2393A). In words: Ovarian tumor-initiating cell growth inhibition (Alamar Blue). In kind it is cell-based. Conditions: 144 h; Ovarian 2393A TICs, 6 days; read-out: Tumor Initiating Cell GI50 Range Ovarain 2393A.
From the text: Materials and Methods: Non-tissue or tissue cultured treated T-75 flask and 96-well plates were purchased from VWR. Vitamin B-27 supplement, MEM NEAA (minimum essential medium non essential amino acids), sodium pyruvate, L-glutamine, N2 supplement, penicillin-streptomycin and fungizone/amphotericin B were obtained from Invitrogen. Lipid mixture, heparin and EGF were purchased from Sigma; bFGF from BD Biosciences. Tumor Initiating Cells (TICs) from colon were routinely maintained using non-tissue cultured treated T-75 flasks in DMEM:F12 medium containing 0.2×B-27 supplement, 4 ug/ml heparin, 1×MEM NEAA, 1× sodium pyruvate, 1 mM glutamine, 10 pg/ul bFGF, 20 pg/ul EGF, 1×N2 supplement, lipid mixture, penicillin-streptomycin and fungizone/amphotericin B. Ovarian TICs were routinely maintained using tissue cultured treated T-75 flasks in DMEM:F12 medium containing 1×B-27 supplement, 4 ug/ml heparin, 20 pg/ul bFGF, 20 pg/ul EGF and penicillin-streptomycin.
Assay Protocol: Compounds described herein were dissolved in DMSO and further diluted in cell culture medium for GI50 determination. Colon TICs were trypsinized and seeded into non-tissue cultured treated 96-well plates with 4,000 cells/well. After 24 h, compound was added into the cell culture at different concentrations, and the final concentration of DMSO was adjusted to 0.1%. Cells were then cultured at 37° C. for 9 days. Ovarian TICs were trypsinized and seeded into tissue cultured treated 96-well plates with 1,000 cells/well. After 24 h, compound was added into the cell culture at different concentrations, and the final concentration of DMSO was adjusted to 0.1%. Cells were then cultured at 37° C. for 6 days. Cell viability was assessed by Alamar Blue assay: 10 ul of Alamar Blue was added into each well. After 4 hours incubation at 37° C., fluorescence was recorded at excitation 544 and emission 590. GI50 (Growth inhibition) was calculated using GraphPad Prism 4.0 software.

In the case of `O=C(N[C@H](c1ccccn1)C1CC1)c1ccc2[nH]nc(-c3ccc(N4CC(C5COC5)C4)cc3)c2c1` [Example A311, (S)-N-(cyclopropyl(pyridin-2-yl)methyl)-3-(4-(3-(oxetan-3-yl)azetidin-1-yl)phenyl)-1H-indazole-5-carboxamide], in assay [1], the IC50 is less than 100 nM. Moreover, the GI50 in assay [2], in assay [3], in assay [4], in assay [5] and in assay [6] was less than 100 nM in each case.
As to `O=C(NCC1(N2CCOCC2)CCCCC1)c1ccc2[nH]nc(-c3ccc(N4[C@@H]5CC[C@H]4C[C@@H](O)C5)cc3)c2c1` [Example A508, 3-(4-((1R,3R,5S)-3-hydroxy-8-azabicyclo[3.2.1]octan-8-yl)phenyl)-N-((1-morpholinocyclohexyl)methyl)-1H-indazole-5-carboxamide], in assay [1], the IC50 was less than 100 nM. Moreover, the GI50 in assay [2], in assay [3], in assay [4], in assay [5] and in assay [6] was less than 100 nM in each case.
Take `CC(C)C(NC(=O)c1ccc2[nH]nc(-c3ccc(O[C@H]4C[C@H]5CC[C@@H](C4)N5C)cc3)c2c1)c1ccccc1Cl` (stereo partly drawn) [Example A279, N-(1-(2-chlorophenyl)-2-methylpropyl)-3-(4-(((1R,3R,5S)-8-methyl-8-azabicyclo[3.2.1]octan-3-yl)oxy)phenyl)-1H-indazole-5-carboxamide]: the IC50 in assay [1] is less than 100 nM. Moreover, the GI50 in assay [2] was less than 100 nM; in assay [3], less than 100 nM; in assay [4], less than 100 nM; in assay [5], 100 to 500 nM; in assay [6] it was 100 to 500 nM.
Turning to `O=C(NC(c1ccccc1)C1CC1)c1ccc2[nH]nc(-c3ccc(O[C@H]4C[C@H]5CC[C@@H](C4)N5C4COC4)cc3)c2c1` (stereo partly drawn) [Example A321, N-(cyclopropyl(phenyl)methyl)-3-(4-(((1R,3R,5S)-8-(oxetan-3-yl)-8-azabicyclo[3.2.1]octan-3-yl)oxy)phenyl)-1H-indazole-5-carboxamide], the IC50 in assay [1] is less than 100 nM. Also, the GI50 in assay [2] was 100 to 500 nM; in assay [3], 100 to 500 nM; in assay [4] it was 100 to 500 nM; in assay [5], less than 100 nM; in assay [6], 100 to 500 nM.
Regarding `CC(C)C(NC(=O)c1ccc2[nH]nc(-c3ccc(O[C@H]4C[C@H]5CC[C@@H](C4)N5C4COC4)cc3)c2c1)c1ccccn1` (stereo partly drawn) [Example A325, N-(2-methyl-1-(pyridin-2-yl)propyl)-3-(4-(((1R,3R,5S)-8-(oxetan-3-yl)-8-azabicyclo[3.2.1]octan-3-yl)oxy)phenyl)-1H-indazole-5-carboxamide], the IC50 in assay [1] is less than 100 nM. The 50% growth inhibitory concentration (GI50) is 100 to 500 nM in assay [2]; 100 to 500 nM in assay [3]; 100 to 500 nM in assay [4]; less than 100 nM in assay [5]; 100 to 500 nM in assay [6].
In the case of `CC(C)[C@H](NC(=O)c1ccc2[nH]nc(-c3ccc(OC4CCN(C)CC4)cc3)c2c1)c1ccccc1Cl` [Example A273, (S)-N-(1-(2-chlorophenyl)-2-methylpropyl)-3-(4-((1-methylpiperidin-4-yl)oxy)phenyl)-1H-indazole-5-carboxamide], in assay [1], the IC50 is less than 100 nM. The GI50 in assay [2], in assay [3], in assay [4], in assay [5] and in assay [6] was less than 100 nM throughout.
As to `CC(C)C[C@H](NC(=O)c1ccc2[nH]nc(-c3ccc(N4[C@@H]5CC[C@H]4COC5)cc3)c2c1)c1ccccn1` [Example A303, 3-(4-((1R,5S)-3-oxa-8-azabicyclo[3.2.1]octan-8-yl)phenyl)-N-((S)-3-methyl-1-(pyridin-2-yl)butyl)-1H-indazole-5-carboxamide], in assay [1], the IC50 is less than 100 nM. Besides, the GI50 in assay [2], in assay [3], in assay [4], in assay [5] and in assay [6] was less than 100 nM each time.
On to `CN1CCC(Oc2ccc(-c3n[nH]c4ccc(C(=O)N[C@@H](c5ccccn5)C5CC5)cc34)cc2Cl)CC1` [Example A386, (R)-3-(3-chloro-4-((1-methylpiperidin-4-yl)oxy)phenyl)-N-(cyclopropyl(pyridin-2-yl)methyl)-1H-indazole-5-carboxamide], for which the IC50 in assay [1] was less than 100 nM. Moreover, the GI50 in assay [2] was more than 500 nM; in assay [3], 100 to 500 nM; in assay [4] it was 100 to 500 nM; in assay [5], 100 to 500 nM; in assay [6], more than 500 nM.
Consider `CCC[C@H](NC(=O)c1ccc2[nH]nc(-c3ccc(OC4CC5CCC(C4)N5C=O)cc3)c2c1)c1ccccc1` (stereo partly drawn) [Example A343, 3-(4-(((1R,3R,5S)-8-formyl-8-azabicyclo[3.2.1]octan-3-yl)oxy)phenyl)-N-((S)-1-phenylbutyl)-1H-indazole-5-carboxamide], for which the IC50 in assay [1] is less than 100 nM. Besides, the GI50 in assay [2] is 100 to 500 nM; in assay [3], less than 100 nM; in assay [4], less than 100 nM; in assay [5], less than 100 nM; in assay [6] it was 100 to 500 nM.
As for `CC(C)[C@H](NC(=O)c1ccc2[nH]nc(-c3ccc(N4C5COCC4CC(O)C5)cc3)c2c1)c1ccccc1Cl` (stereo partly drawn) [Example A421, N((S)-1-(2-chlorophenyl)-2-methylpropyl)-3-(4-((1R,5S,7R)-7-hydroxy-3-oxa-9-azabicyclo [3.3.1]nonan-9-yl)phenyl)-1H-indazole-5-carboxamide], in assay [1], the IC50 was less than 100 nM. In addition, the 50% growth inhibitory concentration (GI50) in assay [2], in assay [3], in assay [4], in assay [5] and in assay [6] was less than 100 nM in each case.
Turning to `O=C(N[C@H](c1ccccc1F)C1CC1)c1ccc2[nH]nc(-c3ccc(N4CCN(C5COC5)CC4)cc3)c2c1` [Example A269, (S)-N-(cyclopropyl(2-fluorophenyl)methyl)-3-(4-(4-(oxetan-3-yl)piperazin-1-yl)phenyl)-1H-indazole-5-carboxamide], the IC50 in assay [1] was less than 100 nM. Moreover, the GI50 in assay [2], in assay [3], in assay [4], in assay [5] and in assay [6] was less than 100 nM each time.
Consider `O=C(NCC1(N2CCOCC2)CCCCC1)c1ccc2[nH]nc(-c3ccc(N4CCN(CCO)CC4)cc3)c2c1` [Example A459, 3-(4-(4-(2-hydroxyethyl)piperazin-1-yl)phenyl)-N-((1-morpholinocyclohexyl)methyl)-1H-indazole-5-carboxamide], for which the IC50 in assay [1] is less than 100 nM. The GI50 was 100 to 500 nM in assay [2]; less than 100 nM in assay [3]; less than 100 nM in assay [4]; 100 to 500 nM in assay [5]; 100 to 500 nM in assay [6].
On to `CC1=CC2(CCN(C)CC2)Oc2ccc(-c3n[nH]c4ccc(C(=O)NCC5(N6CCOCC6)CCCCC5)cc34)cc21` [Example A489, 3-(1′,4-dimethylspiro[chromene-2,4′-piperidin]-6-yl)-N-((1-morpholinocyclohexyl)methyl)-1H-indazole-5-carboxamide], for which the IC50 in assay [1] was less than 100 nM. Also, the GI50 in assay [2], in assay [3], in assay [4], in assay [5] and in assay [6] was less than 100 nM in each case.
Regarding `CC(C)C(NC(=O)c1ccc2[nH]nc(-c3ccc(O[C@H]4C[C@H]5CCC[C@@H](C4)N5C)cc3)c2c1)c1ccccc1Cl` (stereo partly drawn) [Example A394, N-(1-(2-chlorophenyl)-2-methylpropyl)-3-(4-(((lR,3R,5S)-9-methyl-9-azabicyclo[3.3.1]nonan-3-yl)oxy)phenyl)-1H-indazole-5-carboxamide], in assay [1], the IC50 is less than 100 nM. Further, the GI50 was 100 to 500 nM in assay [2]; less than 100 nM in assay [3]; 100 to 500 nM in assay [4]; 100 to 500 nM in assay [5]; 100 to 500 nM in assay [6].

As usually defined, the IC50 is the point on the concentration scale where inhibition reaches its midpoint. As a reminder, the GI50 is the concentration at which growth is held to half of that of the control.
